Reference: patent US12024531B2, “Immunoproteasome inhibitors” (Principia Biopharma Inc., priority 2017, dated 2024)

Legend:
[1] = biological target: immunoproteasome LMP2 subunit (Homo sapiens, UniProt P28065); test: Caliper-based proteasome enzymatic activity assay, LMP2; format: biochemical; conditions: human recombinant immunoproteasome 0.3 nM, FAM peptide substrate 1 μM, rt 2 h
PBMC LMP7 = PBMC LMP7 (Homo sapiens, UniProt P28062); test: Inhibition of proteasome activity in cells (Proteasome-Glo), PBMC/LMP7; format: cell-based; conditions: 2 h incubation at 37° C.
Procedure: The cell-based effects of a compound described herein on the immunoproteasome were determined by measuring inhibition of proteasome activity in cells using the Proteasome-Glo™ Cell-Based Reagent (Promega, Madison WI). The Proteasome-Glo™ assay contains a specific luminogenic proteasome substrate in a buffer optimized for cell permeabilization, proteasome activity, and luciferase activity. For the chymotrypsin-like activity (LMP7 and 05c), the peptide substrate is Suc-LLVY-aminoluciferin (Succinyl-leucine-leucine-valine-tyrosine-aminoluciferin). Cleavage of the substrate by proteasome results in luminescent signal which is proportional to the proteasome activity. The cell line THP-1 (a monocytic leukemia cell line enriched in immunoproteasome), the cell line HT-29 (a colorectal adenocarcinoma cell line enriched in constitutive proteasome), and primary human peripheral blood mononuclear cells (PBMC) were used to assess proteasome activity. Cells were seeded in a 96-well plate at 10,000 cells per well in RPMI 1640 high glucose medium with 10% fetal bovine serum (FBS). Compound dilutions were added to cells starting at a concentration of 5 uM and decreasing in tripling dilutions. The final DMSO concentration was 1%. The concentration range was adjusted as needed for compounds of different potencies. The cells treated with compounds were incubated for 2 h at 37° C. in 5% CO2. At the end of the 2 hour incubation period, cells were transferred to white 384 well assay plates. 20 uL of Proteasome-Glo™ Reagent was added to each well and incubated for 10 minutes at rt. The plate was read in the Analyst HT instrument (Molecular Devices, Sunnyvale, CA) using luminescence mode. The percent inhibition of activity was plotted as a function of log compound concentration. The IC50 was then calculated for each compound using Prism software from GraphPad Software Inc. (San Diego, CA).

[2] = biological target: immunoproteasome LMP7/B5i subunit (Homo sapiens, UniProt P28062); test: Caliper-based proteasome enzymatic activity assay, LMP7; format: biochemical; conditions: human recombinant immunoproteasome 0.3 nM, FAM peptide substrate 1 μM, rt 3 h
[3] = biological target: constitutive proteasome β5c subunit (Homo sapiens, UniProt P28074); test: Caliper-based proteasome enzymatic activity assay, β5c; format: biochemical; conditions: human recombinant constitutive proteasome 0.3 nM, FAM peptide substrate 1 μM, rt 3 h

Row | SMILES | IC50 [1] | IC50 (PBMC LMP7) | IC50 [2] | IC50 [3]
1 | N#CC(=Cc1cccc(OCCC(=O)N[C@@H](CCc2ccccc2)B(O)O)c1)c1ccccn1 [Example 21, (R)-(1-(3-(3-(2-cyano-2-(pyridin-2-yl)vinyl)phenoxy)propanamido)-3-phenylpropyl)boronic Acid] | > 5000 nM | 8 nM | 27 nM | 260 nM
2 | N#CC(=Cc1cccc(CCOC(=O)N[C@@H](Cc2coc3ccccc23)B(O)O)c1)c1ccccn1 [Example 35, (R)-(2-(benzofuran-3-yl)-1-(((3-(2-cyano-2-(pyridin-2-yl)vinyl)phenethoxy)carbonyl)amino)ethyl)boronic Acid] | > 5000 nM | 3 nM | 2 nM | 66 nM
3 | Cc1ccc(C[C@H](NC(=O)OCCc2cccc(C=C(C#N)C(=O)N(C)C)c2)B(O)O)cc1 [Example 50, (R)-(1-(((3-(2-cyano-3-(dimethylamino)-3-oxoprop-1-en-1-yl)phenethoxy)carbonyl)amino)-2-(p-tolyl)ethyl)boronic Acid] | > 5000 nM | 4 nM | 1.5 nM | 1090 nM
4 | CCN(CC)C(=O)C(C#N)=Cc1cccc(CCOC(=O)N[C@@H](Cc2ccccc2)B(O)O)c1 [Example 52, (R)-(1-(((3-(2-cyano-3-(diethylamino)-3-oxoprop-1-en-1-yl)phenethoxy)carbonyl)amino)-2-phenylethyl)boronic Acid] | > 5000 nM | 44 nM | 10.3 nM | > 5000 nM
5 | N#CC(=Cc1cccc(CCOC(=O)N[C@@H](Cc2ccccc2)B(O)O)c1)c1ncccc1F [Example 54, (R)-(1-(((3-(2-cyano-2-(3-fluoropyridin-2-yl)vinyl)phenethoxy)carbonyl)amino)-2-phenylethyl)boronic Acid] | > 5000 nM | 4 nM | 3.3 nM | 610 nM
6 | CCN(CC)C(=O)C(C#N)=Cc1cccc(CCOC(=O)N[C@@H](Cc2ccc(C)cc2)B(O)O)c1 [Example 55, (R)-(1-(((3-(2-cyano-3-(diethylamino)-3-oxoprop-1-en-1-yl)phenethoxy)carbonyl)amino)-2-(p-tolyl)ethyl)boronic Acid] | > 5000 nM | 4 nM | 2 nM | 1180 nM
7 | CCN(CC)C(=O)C(C#N)=Cc1cccc(CCOC(=O)N[C@@H](Cc2coc3ccccc23)B(O)O)c1 [Example 58, (R)-(2-(benzofuran-3-yl)-1-(((3-(2-cyano-3-(diethylamino)-3-oxoprop-1-en-1-yl)phenethoxy)carbonyl)amino)ethyl)boronic Acid] | > 5000 nM | 12 nM | 1.7 nM | 255 nM
8 | N#CC(=Cc1cccc(CCOC(=O)N[C@@H](Cc2ccccc2)B(O)O)c1)c1ncccn1 [Example 60, (R)-(1-(((3-(2-cyano-2-(pyrimidin-2-yl)vinyl)phenethoxy)carbonyl)amino)-2-phenylethyl)boronic Acid] | 1020 nM | 2 nM | 1.1 nM | 167 nM
9 | Cc1ccc(C[C@H](NC(=O)OCCc2cccc(C=C(C#N)c3ccc(C(F)(F)F)cn3)c2)B(O)O)cc1 [Example 81, (R)-(1-(((3-(2-cyano-2-(5-(trifluoromethyl)pyridin-2-yl)vinyl)phenethoxy)carbonyl)amino)-2-(p-tolyl)ethyl)boronic Acid] | 2830 nM |  | 5.2 nM | 438 nM
10 | CCN(CC)C(=O)C(C#N)=Cc1cccc(CCNC(=O)N[C@@H](Cc2ccc(C)cc2)B(O)O)c1 [Example 82, (R)-(1-(3-(3-(2-cyano-3-(diethylamino)-3-oxoprop-1-en-1-yl)phenethyl)ureido)-2-(p-tolyl)ethyl)boronic Acid] | > 5000 nM |  | 24 nM | > 5000 nM
11 | Cc1ccc(C[C@H](NC(=O)NCCc2cccc(C=C(C#N)c3ncccn3)c2)B(O)O)cc1 [Example 83, (R)-(1-(3-(3-(2-cyano-2-(pyrimidin-2-yl)vinyl)phenethyl)ureido)-2-(p-tolyl)ethyl)boronic Acid] | > 5000 nM |  | 37 nM | 1970 nM
12 | Cn1cnc(C(C#N)=Cc2cccc(CCOC(=O)N[C@@H](Cc3ccccc3)B(O)O)c2)cc1=O [Example 84, (R)-(1-(((3-(2-cyano-2-(1-methyl-6-oxo-1,6-dihydropyrimidin-4-yl)vinyl)phenethoxy)carbonyl)amino)-2-phenylethyl)boronic Acid] | 2020 nM |  | 1.9 nM | 240 nM
13 | Cc1ccc(C[C@H](NC(=O)OCCc2cccc(C=C(C#N)C(=O)N3[C@H](C)COC[C@H]3C)c2)B(O)O)cc1 [Example 85, ((R)-1-(((3-(2-cyano-3-((3R,5R)-3,5-dimethylmorpholino)-3-oxoprop-1-en-1-yl)phenethoxy)carbonyl)amino)-2-(p-tolyl)ethyl)boronic Acid] | > 5000 nM |  | 1.1 nM | 1170 nM
14 | CCN(CC)C(=O)C(C#N)=Cc1cccc(CCOC(=O)N[C@@H](Cc2ccc(Cl)cc2)B(O)O)c1 [Example 86, (R)-(2-(4-chlorophenyl)-1-(((3-(2-cyano-3-(diethylamino)-3-oxoprop-1-en-1-yl)phenethoxy)carbonyl)amino)ethyl)boronic Acid] | > 5000 nM |  | 0.9 nM | 779 nM
15 | Cc1ccc(C[C@H](NC(=O)OCCc2cccc(C=C(C#N)c3ncccn3)c2)B(O)O)cc1 [Example 87, (R)-(1-(((3-(2-cyano-2-(pyrimidin-2-yl)vinyl)phenethoxy)carbonyl)amino)-2-(p-tolyl)ethyl)boronic Acid] | > 5000 nM |  | 1.6 nM | 197 nM
16 | CCN(C(=O)C(C#N)=Cc1cccc(CCOC(=O)N[C@@H](Cc2ccc(C)cc2)B(O)O)c1)C1CCOCC1 [Example 88, (R)-(1-(((3-(2-cyano-3-(ethyl(tetrahydro-2H-pyran-4-yl)amino)-3-oxoprop-1-en-1-yl)phenethoxy)carbonyl)amino)-2-(p-tolyl)ethyl)boronic Acid] | > 5000 nM |  | 1.2 nM | 802 nM
17 | Cc1ccc(C[C@H](NC(=O)OCCc2cccc(C=C(C#N)C(=O)N3C4CCC3COC4)c2)B(O)O)cc1 [Example 89, ((1R)-1-(((3-(3-(3-oxa-8-azabicyclo[3.2.1]octan-8-yl)-2-cyano-3-oxoprop-1-en-1-yl)phenethoxy)carbonyl)amino)-2-(p-tolyl)ethyl)boronic Acid] | > 5000 nM |  | 0.5 nM | 869 nM
18 | CCN(C)C(=O)C(C#N)=Cc1cccc(CCOC(=O)N[C@@H](Cc2ccccc2)B(O)O)c1 [Example 90, (R)-(1-(((3-(2-cyano-3-(ethyl(methyl)amino)-3-oxoprop-1-en-1-yl)phenethoxy)carbonyl)amino)-2-phenylethyl)boronic Acid] | > 5000 nM |  | 4.6 nM | > 5000 nM
19 | CN(CC(F)(F)F)C(=O)C(C#N)=Cc1cccc(CCOC(=O)N[C@@H](Cc2ccccc2)B(O)O)c1 [Example 91, (R)-(1-(((3-(2-cyano-3-(methyl(2,2,2-trifluoroethyl)amino)-3-oxoprop-1-en-1-yl)phenethoxy)carbonyl)amino)-2-phenylethyl)boronic Acid] | > 5000 nM |  | 2.3 nM | 3840 nM
20 | Cc1ccc(C[C@H](NC(=O)OCCc2cccc(C=C(C#N)C(=O)N3[C@@H](C)COC[C@@H]3C)c2)B(O)O)cc1 [Example 92, ((R)-1-(((3-(2-cyano-3-((3S,5S)-3,5-dimethylmorpholino)-3-oxoprop-1-en-1-yl)phenethoxy)carbonyl)amino)-2-(p-tolyl)ethyl)boronic Acid] | > 5000 nM |  | 0.6 nM | 532 nM
21 | CC1(C)COCCN1C(=O)C(C#N)=Cc1cccc(CCOC(=O)N[C@@H](Cc2coc3ccccc23)B(O)O)c1 [Example 93, (R)-(2-(benzofuran-3-yl)-1-(((3-(2-cyano-3-(3,3-dimethylmorpholino)-3-oxoprop-1-en-1-yl)phenethoxy)carbonyl)amino)ethyl)boronic Acid] | > 5000 nM |  | 1.1 nM | 45 nM
22 | N#CC(=Cc1cccc(CCNC(=O)N[C@@H](Cc2coc3ccccc23)B(O)O)c1)c1ncccn1 [Example 94, (R)-(2-(benzofuran-3-yl)-1-(3-(3-(2-cyano-2-(pyrimidin-2-yl)vinyl)phenethyl)ureido)ethyl)boronic Acid] | > 5000 nM |  | 2.2 nM | 15 nM
23 | CCN(CC)C(=O)C(C#N)=Cc1cc(C#N)cc(CCOC(=O)N[C@@H](Cc2ccc(C)cc2)B(O)O)c1 [Example 101, (R)-(1-(((3-cyano-5-(2-cyano-3-(diethylamino)-3-oxoprop-1-en-1-yl)phenethoxy)carbonyl)amino)-2-(p-tolyl)ethyl)boronic Acid] | > 5000 nM |  | 0.6 nM | 440 nM
